These are literature values, as cited in patent US20070275062A1, “Controlled release oxycodone compositions” (priority 1993, published 2007).

In this data set the test system is pain. To be noted: for dose-response slopes: Beaver, et al.

Read-outs that look alike come from different tables or passages of the source.

On to `COc1ccc2c3c1O[C@H]1C(=O)CC[C@@]4(O)[C@@H](C2)N(C)CC[C@]314` [oxycodone], for which the “parallelism of the dose-response curves” value (in comparison with other oral and parenteral opioids) is “no substantial deviation from parallelism”. In addition, the dose-response slopes result runs as follows: (oral as compared to parenteral oxycodone) “comparable dose-response slopes”; (parenteral oxycodone as compared to parenteral morphine) “comparable dose-response slopes”.
